Key:
Type in all cases: in vivo
abutilon theophrasti = assay: Herbicidal activity, pot culture method (primary and secondary screening test); settings: sprayed at 3-leaf stage; for inhibition ratio, Abutilon theophrasti: investigated 15 days later; for herbicidal activity inhibition ratio (%), Abutilon theophrasti: primary screening, pot culture, 150 g/ha, result 15 days later
Summary of the method: (§1)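 Percent growth inhibition of weeds sprayed at the 3-leaf stage, 150 g/ha in the primary screen and a lower dose in the secondary screen, scored 15 days after treatment under greenhouse conditions.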

amaranthus retroflexus = assay: as above; settings: sprayed at 3-leaf stage; for inhibition ratio, Amaranthus retroflexus: investigated 15 days later; for herbicidal activity inhibition ratio (%), Amaranthus retroflexus: primary screening, pot culture, 150 g/ha, result 15 days later
Summary of the method: as §1

digitaria sanguinalis = assay: as above; settings: sprayed at 3-leaf stage; for inhibition ratio, Digitaria sanguinalis: investigated 15 days later; for herbicidal activity inhibition ratio (%), Digitaria sanguinalis: primary screening, pot culture, 150 g/ha, result 15 days later
Summary of the method: as §1

echinochloa crusgalli = assay: as above; settings: sprayed at 3-leaf stage; for inhibition ratio, Echinochloa crusgalli: investigated 15 days later; for herbicidal activity inhibition ratio (%), Echinochloa crusgalli: primary screening, pot culture, 150 g/ha, result 15 days later
Summary of the method: as §1

eclipta prostrata = assay: as above; settings: sprayed at 3-leaf stage; for inhibition ratio, Eclipta prostrata: investigated 15 days later; for herbicidal activity inhibition ratio (%), Eclipta prostrata: primary screening, pot culture, 150 g/ha, result 15 days later
Summary of the method: as §1

setaria viridis = assay: as above; settings: sprayed at 3-leaf stage; for inhibition ratio, Setaria viridis: investigated 15 days later; for herbicidal activity inhibition ratio (%), Setaria viridis: primary screening, pot culture, 150 g/ha, result 15 days later
Summary of the method: as §1

maize = assay: Crop safety test (pot culture method); settings: for inhibition ratio, Maize (crop safety): plants with about 4-5 leaves, investigated 15 days later
Text: (§2) This test example is for describing crop safety of the compound with a structure shown in Formula (1). Crop safety test method (pot culture method): The test targets are wheat and maize. Take flowerpots with an inner diameter of 12 cm, put composite soil (vegetable garden soil:seedling matrix=1:2, v/v) into them till ¾ of flowerpot height, directly sow the crop seeds (budding rate>85%), cover them with 0.2 cm thick soil, and keep the plants for future use when they grow to have about 4-5 leaves. Each compound is dissolved in N,N-dimethylformamide at doses of 75 g/ha or 150 g/ha and diluted with distilled water containing 0.1% tween-80 emulsifier to form 0.1 g/L (75 g/ha) solution and 0.2 g/L (150 g/ha) solution respectively. The solutions are sprayed through an automatic spray tower. After the solutions on weed leaves are dried in the air, the flowerpots are moved into a greenhouse for cultivation. The result is investigated 15 days later.

wheat = assay: Crop safety test (pot culture method); settings: plants with about 4-5 leaves, investigated 15 days later
Text: as §2

Structure (SMILES)	inhibition ratio, Abutilon theophrasti (abutilon theophrasti; dose 37.5 g/ha) [%]	inhibition ratio, Abutilon theophrasti (abutilon theophrasti; dose 75 g/ha) [%]	herbicidal activity inhibition ratio (%), Abutilon theophrasti (abutilon theophrasti) [%]	inhibition ratio, Amaranthus retroflexus (amaranthus retroflexus; dose 37.5 g/ha) [%]	inhibition ratio, Amaranthus retroflexus (amaranthus retroflexus; dose 75 g/ha) [%]	herbicidal activity inhibition ratio (%), Amaranthus retroflexus (amaranthus retroflexus) [%]	inhibition ratio, Digitaria sanguinalis (digitaria sanguinalis; dose 37.5 g/ha) [%]	inhibition ratio, Digitaria sanguinalis (digitaria sanguinalis; dose 75 g/ha) [%]	herbicidal activity inhibition ratio (%), Digitaria sanguinalis (digitaria sanguinalis) [%]	inhibition ratio, Echinochloa crusgalli (echinochloa crusgalli; dose 37.5 g/ha) [%]	inhibition ratio, Echinochloa crusgalli (echinochloa crusgalli; dose 75 g/ha) [%]	herbicidal activity inhibition ratio (%), Echinochloa crusgalli (echinochloa crusgalli) [%]	inhibition ratio, Eclipta prostrata (eclipta prostrata; dose 37.5 g/ha) [%]	inhibition ratio, Eclipta prostrata (eclipta prostrata; dose 75 g/ha) [%]	herbicidal activity inhibition ratio (%), Eclipta prostrata (eclipta prostrata) [%]	inhibition ratio, Setaria viridis (setaria viridis; dose 37.5 g/ha) [%]	inhibition ratio, Setaria viridis (setaria viridis; dose 75 g/ha) [%]	herbicidal activity inhibition ratio (%), Setaria viridis (setaria viridis) [%]	inhibition ratio, Maize (crop safety) (maize; dose 75 g/ha) [%]	inhibition ratio, Maize (crop safety) (maize; dose 150 g/ha) [%]	also measured
Cc1ccccc1-n1c(=O)c2cc(C(=O)C3=C(O)CC(C)(C)CC3=O)ccc2n(C)c1=O [Compound 21]	70	100	85	80	90	100	70	75	85	70	75	85	40	50	95	70	75	100	0	15	inhibition ratio, Wheat (crop safety) (wheat; dose 75 g/ha): 0%; inhibition ratio, Wheat (crop safety) (wheat; dose 150 g/ha): 0%
Cn1c(=O)n(-c2cccc(Br)c2)c(=O)c2cc(C(=O)C3=C(O)CCCC3=O)ccc21 [Compound 23]	100	100	85	100	100	95	20	65	30	20	20	85	100	100	50	30	50	45	0	0	safety to maize fields (in words) (maize; dose 150 g/ha): highly safe; inhibition ratio, Wheat (crop safety) (wheat; dose 75 g/ha): 0%; inhibition ratio, Wheat (crop safety) (wheat; dose 150 g/ha): 5%
Cc1cccc(C)c1-n1c(=O)c2cc(C(=O)C3=C(O)CCCC3=O)ccc2n(C)c1=O [Compound 34]	30	50	90	100	100	100	55	75	83	65	80	90	30	50	80	70	78	80	0	0	safety to maize fields (in words) (maize; dose 150 g/ha): highly safe; inhibition ratio, Wheat (crop safety) (wheat; dose 75 g/ha): 0%; inhibition ratio, Wheat (crop safety) (wheat; dose 150 g/ha): 5%
